The structures appear in SMILES notation. Like-named read-outs stand apart in the source and are kept apart here.

Data set [1] deals with Mouse BV-2 microglial cells. The data set is described as follows: BV-2 glial cell assay (TNF-α and MCP-1 by Luminex). In kind it is cell-based. As to conditions: for EC50: Mus musculus, BV-2, LPS and IFN-γ activated, 20 hours; for inhibiting glial cell activation (TNF-α and/or MCP-1): Table 3. On the procedure: Mouse BV-2 microglial cells were seeded on 96-well plates at a concentration of 3×10^4 cells/well. Cells were activated with 100 ng/mL LPS and IFN-γ (100 ng/mL) in the presence or absence of test compounds (0-30 uM). Following incubation for 20 hours, cells were spun down and supernatant collected. The supernatant was analyzed via Luminex for the presence of TNF-α and MCP-1.

Data set [2] deals with phosphorylated c-Jun (serine-73). The data set is described as follows: Phosphorylated c-JUN (A-beta), SH-SY5Y. It is filed as cell-based. The note with it: Homo sapiens, Amyloid Beta peptide 30 uM, 3 hours, read-out: p-cJun Abeta SH-SY5Y (EC50 in μM). On the procedure:
In 96-well plates either human SH-SY5Y neuroblastoma cells at 2.5×10^4 cells/well or E18 rat neuronal cells at 1.5×10^4 cells/well were seeded. […] Supernatant was discarded and cells were fixed with 4% paraformaldehyde (100 ul/well) for 20 minutes. FACE cell based ELISA assay (Active Motif) was performed specific for quantifying phosphorlyated c-Jun (serine-73).

In data set [3] the target is T1, recombinant human phosphodiesterase 10A1 enzyme (Homo sapiens, UniProt Q9Y233).
T1 construct: purchased BPS Biosciences; host or cells: Baculovirus infected Sf9 cells
The data set is described as follows: PDE10 inhibition assay (PDELight). It is filed as biochemical. As to conditions: for IC50: 1 uM cAMP, read-out: PDE 10 Inhibition (IC50 in μM); for PDE-10 inhibition (in words): Table 2.

Data set [4] has as its target T2, recombinant full length human JNK2 enzyme (Homo sapiens, UniProt P45984).
T2 construct: recombinant full length human JNK2 or JNK3 enzyme; purchased Upstate; host or cells: Sf21 cells
Nature of the data set: JNK 2 inhibition assay (ATP depletion, luciferase). In kind it is biochemical. On the procedure:
In a 96-well plate, recombinant full length human JNK2 or JNK3 enzyme (40 ng) expressed in Sf21 cells (Upstate) was incubated with the substrate ATF2 (3 uM) for 1 hour in the presence of 10 uM ATP. […] IC50 calculations were plotted using a nonlinear regression curve fit.

For data set [5], the system named is phosphorylated c-Jun (serine-73). Nature of the data set: Phosphorylated c-JUN (A-beta), E18 rat neuronal cells. In kind it is cell-based. The note with it: Amyloid Beta peptide 30 uM, 3 hours, read-out: p-cJun Abeta E18 (EC50 in μM). How it is done: In 96-well plates either human SH-SY5Y neuroblastoma cells at 2.5×10^4 cells/well or E18 rat neuronal cells at 1.5×10^4 cells/well were seeded. To each well the following was added, Amyloid Beta peptide 1-25 (source) at a concentration of 30 uM, retinoic acid (10 uM) and test compounds (0-30 uM) and incubated for 3 hours. Supernatant was discarded and cells were fixed with 4% paraformaldehyde (100 ul/well) for 20 minutes. FACE cell based ELISA assay (Active Motif) was performed specific for quantifying phosphorlyated c-Jun (serine-73).

For data set [6], the target named is T3, recombinant full length human JNK3 enzyme (Homo sapiens, UniProt P53779).
T3 construct: recombinant full length human JNK2 or JNK3 enzyme; purchased Upstate; host or cells: Sf21 cells
The data set is described as follows: JNK 3 inhibition assay (ATP depletion, luciferase). In kind it is biochemical. The note with it: for IC50: 10 uM ATP, ATF2 substrate; for JNK-3 inhibition (in words): see Table 2. How it is done: In a 96-well plate, recombinant full length human JNK2 or JNK3 enzyme (40 ng) expressed in Sf21 cells (Upstate) was incubated with the substrate ATF2 (3 uM) for 1 hour in the presence of 10 uM ATP. […] The ATP levels were quantified using luciferase with luminescence read on a Victor Light 1420 luminometer. IC50 calculations were plotted using a nonlinear regression curve fit.

For data set [7], the system named is phosphorylated c-Jun (serine-73). Nature of the data set: Phosphorylated c-JUN (6-OHDA), SH-SY5Y. It is filed as cell-based. As to conditions: Homo sapiens, 50 uM 6-hydroxydopamine, 1.5 hours, read-out: p-cJun 6-OHDA SH-SY5Y (EC50 in μM). On the procedure:
Human SH-SY5Y neuroblastoma cells were cultured in 96-well plates with 2.5×10^4 cells/well and incubated for 48 hours. 6-hydroxydopamine was added at a concentration of 50 uM in the presence or absence of test compounds (0-30 uM) and incubated for 1.5 hours. Supernatant was discarded and cells were fixed with 4% paraformaldehyde (100 ul/well) for 20 minutes. FACE cell based ELISA assay (Active Motif) was performed specific for quantifying phosphorlyated c-Jun (serine-73).

In data set [8] the test system is rat chronic constriction injury (CCI) model of neuropathic pain. Nature of the data set: Rat chronic constriction injury (CCI) model of neuropathic pain. It is filed as in vivo. The note with it: IP, dose not given; 50% paw withdrawal threshold, von Frey.
Data set [9] has as its system at least one of JNK 3 or JNK 2 and at least one of PDE 10 or PDE 4. Nature of the data set: Dual inhibition (phosphodiesterase and JNK). As to conditions: IC50 JNK 3 or JNK 2 less than about 5.00 μM and PDE 10 or PDE 4 less than about 20.0 or 30.0 μM. In kind it is biochemical, human. How it is done: In a 96-well plate, recombinant full length human JNK2 or JNK3 enzyme (40 ng) expressed in Sf21 cells (Upstate) was incubated with the substrate ATF2 (3 uM) for 1 hour in the presence of 10 uM ATP. The amount of ATP depletion by the JNK enzyme is measured in the presence or absence of test compounds (0-30 uM). The ATP levels were quantified using luciferase with luminescence read on a Victor Light 1420 luminometer. IC50 calculations were plotted using a nonlinear regression curve fit.
(§1) In a 96-well plate, the catalytic domain of phosphodiesterase 4B enzyme (40 mU/well) cloned from human brain (Scottish Biomedical) was combined with 5 uM cAMP substrate (Sigma). Test compounds (0-30 uM) or vehicle (0.5% DMSO) were added to the enzyme/substrate and incubated 1 hour. Using a PDELight® kit (Cambrex), the amount of AMP produced in the reaction from the hydrolysis of cAMP was quantified using PDELight AMP Detection Reagent which converts the AMP directly to ATP. The assay uses luciferase, which catalyses the formation of light from the newly formed ATP and luciferin. The luminescence was read on a Victor Light 1420 luminometer. IC50 calculations were plotted using a nonlinear regression curve fit.
as §1, with “plate, recombinant human” for “plate, the catalytic domain of”, “phosphodiesterase 10A1” for “phosphodiesterase 4B”, “enzyme (10 U/well) expressed in Baculovirus infected Sf9 cells (BPS Biosciences)” for “enzyme (40 mU/well) cloned from human brain (Scottish Biomedical)”, “with 1” for “with 5”

In data set [10] the target is T4, catalytic domain of phosphodiesterase 4B enzyme cloned from human brain (Homo sapiens, UniProt Q07343).
T4 construct: the catalytic domain of phosphodiesterase 4B enzyme; purchased Scottish Biomedical
Nature of the data set: PDE4 inhibition assay (PDELight). As to conditions: for IC50: 5 uM cAMP, read-out: PDE 4 Inhibition (IC50 in μM). In kind it is biochemical. The procedure, abridged: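 Human PDE4B catalytic domain (40 mU/well) incubated with 5 uM cAMP. AMP formed was converted to ATP and measured by luciferase luminescence (PDELight). IC50 derived by nonlinear regression curve fit.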

A short description of data set [11]: Oral pharmacokinetic evaluation. In kind it is in vivo, rat. The note with it: Sprague-Dawley rats; for half-life / AUC(0-t) / Cmax: male, rat, plasma, 15 mg/kg oral gavage; for half-life: Sprague-Dawley, po, 15 mg/kg, read-out: Oral PK T½ (converted); for AUC(0-t): read-out: Oral PK AUClast; for Cmax: read-out: Oral PK Cmax. On the procedure: Three male Sprague-Dawley rats were dosed orally via gavage with 15 mg/kg of test compound. Serial blood samples were collected from the jugular vein at 5, 15, and 30 min, 1, 3, and 6 hours post dosing. Samples were processed for plasma via centrifugation and plasma samples were stored frozen prior to analysis via a sensitive and specific HPLC/MS/MS method. PK parameters were calculated using WinNonLin (Pharsight).

Where [12] appears, read: read-out: MCP-1 BV-2 (EC50 in μM).
The mark [13] stands for this setting: read-out: TNF-a BV-2 (EC50 in μM).
The mark [14] stands for this setting: 10 uM ATP, ATF2 substrate, read-out: JNK 2 Inhibition (IC50 in μM).

T3 sequence (P53779 whole entry): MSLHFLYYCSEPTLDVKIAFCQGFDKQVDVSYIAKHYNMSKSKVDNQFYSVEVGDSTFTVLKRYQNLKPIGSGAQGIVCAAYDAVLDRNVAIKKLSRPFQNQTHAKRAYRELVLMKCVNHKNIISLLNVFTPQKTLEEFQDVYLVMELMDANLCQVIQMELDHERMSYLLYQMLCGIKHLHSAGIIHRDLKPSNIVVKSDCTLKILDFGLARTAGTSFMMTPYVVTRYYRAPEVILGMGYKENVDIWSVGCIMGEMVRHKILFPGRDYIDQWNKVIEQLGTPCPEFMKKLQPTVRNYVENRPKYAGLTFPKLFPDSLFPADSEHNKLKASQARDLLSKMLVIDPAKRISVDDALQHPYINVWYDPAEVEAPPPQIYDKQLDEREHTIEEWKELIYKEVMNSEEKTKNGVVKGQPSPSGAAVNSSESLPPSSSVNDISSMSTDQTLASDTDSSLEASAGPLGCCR
T2 sequence (P45984 whole entry): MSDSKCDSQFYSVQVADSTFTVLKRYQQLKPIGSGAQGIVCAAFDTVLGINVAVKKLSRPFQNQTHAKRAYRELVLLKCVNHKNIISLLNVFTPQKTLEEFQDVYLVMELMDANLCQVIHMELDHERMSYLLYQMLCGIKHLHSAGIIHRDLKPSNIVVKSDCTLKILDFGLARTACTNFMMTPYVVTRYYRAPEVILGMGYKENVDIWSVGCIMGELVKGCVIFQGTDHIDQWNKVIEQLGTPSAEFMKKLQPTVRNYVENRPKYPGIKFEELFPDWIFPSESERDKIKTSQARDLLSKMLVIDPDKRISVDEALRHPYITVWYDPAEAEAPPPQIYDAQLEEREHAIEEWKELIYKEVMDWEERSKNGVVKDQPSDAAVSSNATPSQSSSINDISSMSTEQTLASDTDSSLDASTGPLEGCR
T1 sequence (Q9Y233 1-779 isoform Q9Y233-1): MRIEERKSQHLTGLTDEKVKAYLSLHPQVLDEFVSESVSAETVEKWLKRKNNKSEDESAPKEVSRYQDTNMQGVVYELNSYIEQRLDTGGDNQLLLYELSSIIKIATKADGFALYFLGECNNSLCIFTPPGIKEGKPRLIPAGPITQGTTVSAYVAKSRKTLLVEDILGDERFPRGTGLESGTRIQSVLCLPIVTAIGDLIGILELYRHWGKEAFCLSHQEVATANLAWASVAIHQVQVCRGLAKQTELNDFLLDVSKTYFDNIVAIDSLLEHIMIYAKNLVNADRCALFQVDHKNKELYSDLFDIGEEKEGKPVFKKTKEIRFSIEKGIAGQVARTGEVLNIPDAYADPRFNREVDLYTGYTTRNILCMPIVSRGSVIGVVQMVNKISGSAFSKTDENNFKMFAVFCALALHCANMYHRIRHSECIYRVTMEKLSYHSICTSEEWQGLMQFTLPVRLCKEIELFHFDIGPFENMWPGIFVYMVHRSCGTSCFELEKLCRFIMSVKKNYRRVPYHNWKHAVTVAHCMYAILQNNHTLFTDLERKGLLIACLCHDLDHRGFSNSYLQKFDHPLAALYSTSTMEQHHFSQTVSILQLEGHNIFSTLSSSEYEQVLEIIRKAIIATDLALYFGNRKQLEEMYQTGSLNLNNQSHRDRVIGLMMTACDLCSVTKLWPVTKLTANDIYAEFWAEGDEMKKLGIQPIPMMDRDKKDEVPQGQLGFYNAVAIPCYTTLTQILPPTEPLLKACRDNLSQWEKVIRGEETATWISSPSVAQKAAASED
T4 sequence (Q07343 330-659 limits assumed): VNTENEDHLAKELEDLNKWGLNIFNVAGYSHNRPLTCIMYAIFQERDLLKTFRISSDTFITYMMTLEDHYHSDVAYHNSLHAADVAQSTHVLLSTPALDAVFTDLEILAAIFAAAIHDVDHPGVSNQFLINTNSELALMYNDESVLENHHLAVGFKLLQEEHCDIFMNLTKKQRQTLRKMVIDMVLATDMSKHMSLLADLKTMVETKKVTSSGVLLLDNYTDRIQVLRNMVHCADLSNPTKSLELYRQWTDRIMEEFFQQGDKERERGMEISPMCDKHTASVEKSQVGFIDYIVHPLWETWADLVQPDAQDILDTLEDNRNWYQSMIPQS

As a reminder, the EC50 is the concentration needed to bring the measured effect to its halfway point. A word on the IC50: it is the midpoint of a concentration-inhibition curve. In the case of `CC(C)C(=O)c1c(C(C)C)nn2ccccc12` [AV411, 1-(2-isopropylpyrazolo[1,5-a]pyridin-3-yl)-2-methylpropan-1-one, reference compound], the EC50 in data set [1] (setting [12]) is 42 µM; in [1] (setting [13]), 2.7 µM; in data set [2], 3.8 µM; in data set [5], above 30 µM; in data set [7], above 30 µM. The IC50 in data set [3] is 6.3 µM; in data set [4] (setting [14]), above 100 µM; in data set [6], above 100 µM.

On to `CC(C)c1nn2ccccc2c1-c1ccnc(NC2CCCC2)n1` [AV1154, N-cyclopentyl-4-(2-isopropylpyrazolo[1,5-a]pyridin-3-yl)pyrimidin-2-amine], for which the “IP CCI efficacy (Change in grams)” value in data set [8] was determined as 0 grams. Further, the “dual inhibition (phosphodiesterase and JNK)” value (“dual inhibition” for short) in data set [9] is listed as “effective dual inhibitors”. Besides, the EC50 in data set [2] is above 10 µM; in data set [5], 13 µM; in [7] it was 3.4 µM. The IC50 in [3] is 3 µM; in [10], 7.1 µM; in data set [6], 6 µM. Further, the “PDE-10 inhibition (in words)” value in [3] was “particularly effective”. Moreover, the “PDE-4 inhibition (in words)” value in data set [10] is reported as “particularly effective”.

Turning to `CCCNc1nccc(-c2cnn3ccccc23)n1` [AV1166, N-propyl-4-(pyrazolo[1,5-a]pyridin-3-yl)pyrimidin-2-amine], the EC50 in [1] (setting [12]) is 1.1 µM; in data set [1] (setting [13]), 0.9 µM; in [2], 11 µM; in [5] it was 37 µM; in data set [7], 1.4 µM. In addition, the “inhibiting glial cell activation (TNF-α and/or MCP-1)” value (shortened to “inhibiting glial cell activation”) in data set [1] is “Particularly effective”. Also, the “dual inhibition” value in [9] is “effective dual inhibitors”. Besides, the IC50 is 38.2 µM in data set [3]; 1.3 µM in data set [4] (setting [14]); 0.01 to 2 µM in data set [4] (read-out: IC50 value based upon a JNK 2 inhibition assay (range given)); 16.5 µM in data set [10]; 0.4 µM in data set [6]. Further, the “PDE-10 inhibition (in words)” value in [3] was “particularly effective”. In [6], the “JNK-3 inhibition (in words)” value is “particularly effective”.

In general, Cmax refers to the highest concentration seen after dosing. On to `Fc1cccc(-c2nn3ccccc3c2-c2ccnc(NC3CCCC3)n2)c1` [AV1180, N-cyclopentyl-4-(2-(3-fluorophenyl)pyrazolo[1,5-a]pyridin-3-yl)pyrimidin-2-amine], for which the “IP CCI efficacy (Change in grams)” value in data set [8] is listed as 0 grams. The EC50 was 1.6 µM in [1] (setting [12]), 0.04 µM in data set [1] (setting [13]), 4.1 µM in data set [2] and above 30 µM in data set [7]. In addition, in [1], the “inhibiting glial cell activation” value is reported as “Particularly effective”. For the same compound, in data set [9], the “dual inhibition” value is “effective dual inhibitors”. Further, the half-maximal inhibitory concentration (IC50) in data set [3] was determined as 53.5 µM; in data set [10], 16.4 µM; in [6] it was 0.3 µM. Further, the “half life following oral dosing (in words)” value in data set [11] (oral) is listed as “particularly prolonged half lives”. Also, the half-life in data set [11] is 1.8 h. Besides, the AUC(0-t) in data set [11] is 160 ng·h/mL. Moreover, the peak concentration (Cmax) in data set [11] amounted to 58 ng/mL. In addition, in data set [6], the “JNK-3 inhibition (in words)” value was “particularly effective”.

`Cc1cccc2c(-c3ccnc(NC(C)C)n3)cnn12` [AV1183, N-isopropyl-4-(7-methylpyrazolo[1,5-a]pyridin-3-yl)pyrimidin-2-amine]: the “IP CCI efficacy (Change in grams)” value in data set [8] worked out at 0.3 grams. Further, the EC50 in data set [1] (setting [12]) came out at 1.2 µM; in data set [1] (setting [13]) it was 1.1 µM; in [2], 5.4 µM; in data set [7], 0.3 µM. Also, the “inhibiting glial cell activation” value in data set [1] is listed as “Particularly effective”. In addition, in data set [9], the “dual inhibition” value is “effective dual inhibitors”. For the same compound, the results for the IC50 in [3], in data set [10] and in data set [6] were 35 µM, 6.2 µM and 0.2 µM, respectively. In addition, in [10], the “PDE-4 inhibition (in words)” value is “particularly effective”. Further, the half-life in data set [11] is 1.1 h. For the same compound, the AUC(0-t) in data set [11] came to 35 ng·h/mL. Moreover, in data set [11], the Cmax was determined as 56 ng/mL. The “JNK-3 inhibition (in words)” value in data set [6] is reported as “particularly effective”.

Take `Oc1c2ccccc2c2c3c(cccc13)N=N2` [SP600125, reference compound]: the “IP CCI efficacy (Change in grams)” value in [8] is reported as 0.5 grams. Moreover, the results for the EC50 in [5] and in data set [7] were 7.6 µM and 0.6 µM, respectively. For the same compound, the half-maximal inhibitory concentration (IC50) in data set [6] was found to be 0.2 µM.

For the origin of these results see patent US20110039873A1, “SUBSTITUTED PYRAZOLO[1,5-a] PYRIDINE COMPOUNDS HAVING MULTI-TARGET ACTIVITY” (priority 2009, published 2011).
